Test results as given in ChEMBL document CHEMBL1201862, “PubChem BioAssay data set” (2004).
Active and inactive are the calls of the source.

How the values were obtained:
[1] = cytotoxicity in NIH/3T3 mouse fibroblasts, dose response, cytotoxicity control, cell-based, mouse embryonic fibroblasts, dry powder, set 2 (AID 493247); assay type: functional; conditions: Fibroblast
[2] = target: NACHT, LRR and PYD domains-containing protein 1 (Homo sapiens, UniProt Q9C000); assay: NALP1 inhibitors in yeast, dose response, luminescent (AID 488860); assay type: functional
[3] = cytotoxicity toward NIH3T3 fibroblasts, dose response, counter-screen, cell-based, ATP luminescence, mouse fibroblasts (AID 2010); assay type: functional;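 also: cells exposed to compound for about 90 hours before reading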
[4] = target: Heat shock protein HSP 90-alpha (Homo sapiens, UniProt P07900); assay type: functional, organism-based
[5] = inhibitors of intracellular T. cruzi replication, confirmation, NIH3T3 host cells, beta-gal luminescence (AID 2044); assay type: functional, cell-based;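 also: intracellular parasites grown in NIH/3T3 mouse fibroblasts as host cells; luminescent beta-galactosidase reporter signal from transgenic T. cruzi replicating inside host cells; inhibitors lower the luminescence signal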
[6] = NIH-3T3 fibroblast cytotoxicity, dose response, cytotoxicity control, cell-based, fluorescence, Alamar Blue, secondary assay (AID 2327); assay type: functional;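 also: NIH-3T3 mouse fibroblasts cultured with fluconazole at 8 µg/mL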
Saccharomyces cerevisiae = assay: NALP1 inhibitor project selectivity study, Caspase-1/ASC signal blockade IC50 in S. cerevisiae (AID 488863); assay type: functional, organism-based
[7] = growth suppression of PTEN-null colon cells, dose response, cell-based, HCT116 PTEN knockout (AID 1047); assay type: functional;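 also: HCT116 colon tumor cells with PTEN knocked out; cells exposed to compound for 60 hours before readout; potency for loss of cell viability measured by luminescence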
[8] = growth suppression of beta-catenin-knockout colon cells, dose response, cell-based, HCT116, human colon tumor (AID 1045); assay type: functional;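 also: HCT116 colon tumor cells with beta catenin knocked out; cells exposed to compound for 60 hours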
[9] = C. albicans growth with fluconazole, confirmation, fluorescence, retest (AID 2467); assay type: functional, cell-based
Beta-galactosidase = Beta-galactosidase (Escherichia coli, UniProt Q8VNN2); assay: beta-galactosidase enzyme inhibitors and activators, dose response, artefact control for CCR6 antagonist project, biochemical, E. coli enzyme, set 3 (AID 504712); assay type: functional
Hexokinase HKDC1 = target: T1, Hexokinase HKDC1 (Homo sapiens, UniProt Q2TB90); assay: HKDC1 hexokinase inhibitors, dose response, biochemical, W721R variant (AID 504729); assay type: functional
T1 sequence (Q2TB90 whole entry): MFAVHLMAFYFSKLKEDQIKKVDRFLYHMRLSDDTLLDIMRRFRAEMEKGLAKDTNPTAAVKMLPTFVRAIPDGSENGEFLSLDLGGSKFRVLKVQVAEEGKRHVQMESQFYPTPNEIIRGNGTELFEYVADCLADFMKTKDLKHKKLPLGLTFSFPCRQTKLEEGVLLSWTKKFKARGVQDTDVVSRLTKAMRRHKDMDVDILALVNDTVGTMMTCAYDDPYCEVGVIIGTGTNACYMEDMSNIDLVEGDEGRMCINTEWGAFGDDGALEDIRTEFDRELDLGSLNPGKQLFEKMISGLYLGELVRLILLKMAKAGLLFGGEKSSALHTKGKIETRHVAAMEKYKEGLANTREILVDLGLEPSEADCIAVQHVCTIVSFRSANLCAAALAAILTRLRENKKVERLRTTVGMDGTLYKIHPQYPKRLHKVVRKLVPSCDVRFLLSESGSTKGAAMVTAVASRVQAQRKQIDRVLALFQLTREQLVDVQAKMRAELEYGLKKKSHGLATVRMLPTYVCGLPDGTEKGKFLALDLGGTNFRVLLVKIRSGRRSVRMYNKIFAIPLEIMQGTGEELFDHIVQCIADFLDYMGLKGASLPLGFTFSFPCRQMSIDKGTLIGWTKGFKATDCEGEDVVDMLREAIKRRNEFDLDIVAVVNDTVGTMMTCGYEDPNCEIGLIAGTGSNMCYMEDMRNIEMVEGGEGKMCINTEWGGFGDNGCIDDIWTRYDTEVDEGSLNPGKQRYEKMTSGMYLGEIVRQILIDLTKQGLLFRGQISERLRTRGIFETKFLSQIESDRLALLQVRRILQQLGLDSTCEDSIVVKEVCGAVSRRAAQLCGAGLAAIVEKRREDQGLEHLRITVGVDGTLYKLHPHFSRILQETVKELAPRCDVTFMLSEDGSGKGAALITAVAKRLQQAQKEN

Nonstructural protein 1 = Nonstructural protein 1 (Influenza A virus, UniProt Q194T2); assay type: functional, Influenza A virus (A/California/07/2009(H1N1))
[10] = target: T2, Kappa-type opioid receptor (Homo sapiens, UniProt P41145); assay: SAR analysis of small molecule antagonists of the kappa opioid receptor via a luminescent beta-arrestin assay - Set 4. [Related pubchem assays (depositor defined):AID1777, AID1778, AID1785, AID1786, AID1966, AID2133, AID2136, AID2285]; assay type: functional
[11] = target: Delta-type opioid receptor (Homo sapiens, UniProt P41143); assay: SAR Analysis of Antagonists of the DOR Receptor using an Image-Based Assay - Set 3. [Related pubchem assays (depositor defined):AID1777, AID1785]; assay type: functional;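 also: U2OS cells expressing DOR1 and beta-arrestin GFP stimulated with 100 nM SNC80; imaging of GFP-tagged beta-arrestin moving into spots after receptor activation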
[12] = target: T2, Kappa-type opioid receptor; assay: SAR analysis of Antagonists of the Kappa Opioid Receptor (KOR) using an Image-Based Assay - Set 4. [Related pubchem assays (depositor defined):AID1777, AID1785]; assay type: functional
[13] = target: T2, Kappa-type opioid receptor; assay: SAR analysis of small molecule antagonists of the kappa opioid receptor via a luminescent beta-arrestin assay - Set 6. [Related pubchem assays (depositor defined):AID1777, AID1778, AID1785, AID1786, AID1966, AID2133, AID2136, AID2285]; assay type: functional
Mu-type opioid receptor = Mu-type opioid receptor (Homo sapiens, UniProt P35372); assay: SAR Analysis of Antagonists of the MOR Receptor using an Image-Based Assay - Set 3. [Related pubchem assays (depositor defined):AID1777, AID1785, AID1786, AID1966, AID2133, AID2136, AID2284, AID2285, AID2420]; assay type: functional
Albumin = Albumin (Bos taurus, UniProt P02769); assay: Counterscreen for inhibitors of T-cell receptor (TCR)-CD3 interaction: Fluorescence-based biochemical high throughput dose response assay to identify inhibitors of T-cell receptor (TCR)-CD3 interaction using a TAMRA-labeled BSA probe.; assay type: functional
INS1 = assay: beta cell apoptosis inhibitors, cytokine rescue, dose response, luminescence, retest (AID 449756); assay type: functional, cell-based; conditions: Rattus norvegicus, INS1;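 also: cell death triggered by IL-1 beta plus TNF-alpha plus IFN-gamma mixture; protective hits raise ATP signal compared with cytokine alone wells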
NS3 = NS3 (Hepatitis C virus, UniProt A3EZJ3); assay: PubChem AID 2173; design: species or system Hepacivirus hominis
Caspase-7 = Caspase-7 (Homo sapiens, UniProt P55210); assay: procaspase-7 activators, dose response, counter-screen for procaspase-3 activator project, biochemical, absorbance (AID 489013)
[14] = system: Streptococcus sp. 'group A'; assay: growth inhibition of control SK(-) GAS strain, dose response, counter-screen for streptokinase expression inhibitor project, luminescence, kanamycin, BacTiterGlo, confirmation (AID 1900); assay type: functional, organism-based
Caspase-3 = target: T3, Caspase-3 (Homo sapiens, UniProt P42574); assay: procaspase-3 activators, dose response, biochemical, absorbance (AID 489014)
T3 sequence (P42574 whole entry): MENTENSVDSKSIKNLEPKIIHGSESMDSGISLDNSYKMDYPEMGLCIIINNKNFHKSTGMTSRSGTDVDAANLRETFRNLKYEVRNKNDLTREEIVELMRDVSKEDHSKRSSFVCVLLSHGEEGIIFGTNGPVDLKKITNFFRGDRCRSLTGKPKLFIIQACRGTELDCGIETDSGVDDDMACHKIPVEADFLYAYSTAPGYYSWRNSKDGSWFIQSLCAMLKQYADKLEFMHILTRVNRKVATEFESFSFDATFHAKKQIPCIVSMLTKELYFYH

Streptococcus = assay: Group A Streptococcus viability loss, dose response, counter-screen for streptokinase expression inhibitor project, luminescence, BacTiterGlo (AID 1915); assay type: functional, organism-based;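 also: potency for reduction of bacterial viability or growth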
[15] = target: T4, Short transient receptor potential channel 4 (Mus musculus, UniProt Q9QUQ5); assay: TRPC4 positive allosteric modulators, dose response, cell-based, HEK293 TRPC4/mu-opioid, Fluo-4 calcium, EC20 DAMGO (AID 434941); assay type: functional
T4 sequence (Q9QUQ5 whole entry): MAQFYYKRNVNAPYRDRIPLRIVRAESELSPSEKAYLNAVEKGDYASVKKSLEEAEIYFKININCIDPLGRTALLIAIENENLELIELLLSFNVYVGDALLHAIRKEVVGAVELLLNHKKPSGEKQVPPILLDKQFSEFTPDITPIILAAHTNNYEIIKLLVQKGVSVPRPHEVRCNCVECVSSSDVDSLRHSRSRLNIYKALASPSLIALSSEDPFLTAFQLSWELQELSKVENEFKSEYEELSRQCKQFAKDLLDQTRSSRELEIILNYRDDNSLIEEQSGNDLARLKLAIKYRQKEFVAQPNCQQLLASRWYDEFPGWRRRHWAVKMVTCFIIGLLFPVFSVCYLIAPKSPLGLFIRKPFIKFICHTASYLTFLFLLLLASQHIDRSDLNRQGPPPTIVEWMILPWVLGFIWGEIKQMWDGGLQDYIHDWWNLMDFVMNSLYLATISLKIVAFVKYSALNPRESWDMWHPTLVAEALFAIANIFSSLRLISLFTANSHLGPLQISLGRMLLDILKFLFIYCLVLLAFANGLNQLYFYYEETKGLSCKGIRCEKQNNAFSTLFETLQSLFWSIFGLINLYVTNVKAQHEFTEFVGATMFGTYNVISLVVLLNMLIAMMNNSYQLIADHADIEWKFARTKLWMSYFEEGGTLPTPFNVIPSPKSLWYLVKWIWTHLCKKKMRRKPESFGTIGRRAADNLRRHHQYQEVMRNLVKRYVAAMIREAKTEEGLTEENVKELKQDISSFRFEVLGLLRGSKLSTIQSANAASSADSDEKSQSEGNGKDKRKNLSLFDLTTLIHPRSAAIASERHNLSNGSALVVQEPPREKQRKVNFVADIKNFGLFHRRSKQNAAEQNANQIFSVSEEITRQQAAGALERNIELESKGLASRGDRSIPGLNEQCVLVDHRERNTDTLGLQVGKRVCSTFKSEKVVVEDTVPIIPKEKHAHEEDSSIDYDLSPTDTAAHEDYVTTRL

T2 sequence (P41145 whole entry): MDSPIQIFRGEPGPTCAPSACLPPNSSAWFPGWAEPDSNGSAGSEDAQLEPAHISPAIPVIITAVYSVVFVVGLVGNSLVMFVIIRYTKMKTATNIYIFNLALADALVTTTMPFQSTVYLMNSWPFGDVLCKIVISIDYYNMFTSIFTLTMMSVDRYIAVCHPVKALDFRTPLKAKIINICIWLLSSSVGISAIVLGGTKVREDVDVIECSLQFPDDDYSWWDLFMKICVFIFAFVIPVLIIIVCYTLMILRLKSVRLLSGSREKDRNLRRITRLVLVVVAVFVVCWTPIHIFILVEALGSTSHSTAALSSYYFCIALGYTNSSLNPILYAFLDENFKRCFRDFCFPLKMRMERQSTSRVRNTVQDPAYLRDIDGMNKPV
NS3, sequence (A3EZJ3 whole entry): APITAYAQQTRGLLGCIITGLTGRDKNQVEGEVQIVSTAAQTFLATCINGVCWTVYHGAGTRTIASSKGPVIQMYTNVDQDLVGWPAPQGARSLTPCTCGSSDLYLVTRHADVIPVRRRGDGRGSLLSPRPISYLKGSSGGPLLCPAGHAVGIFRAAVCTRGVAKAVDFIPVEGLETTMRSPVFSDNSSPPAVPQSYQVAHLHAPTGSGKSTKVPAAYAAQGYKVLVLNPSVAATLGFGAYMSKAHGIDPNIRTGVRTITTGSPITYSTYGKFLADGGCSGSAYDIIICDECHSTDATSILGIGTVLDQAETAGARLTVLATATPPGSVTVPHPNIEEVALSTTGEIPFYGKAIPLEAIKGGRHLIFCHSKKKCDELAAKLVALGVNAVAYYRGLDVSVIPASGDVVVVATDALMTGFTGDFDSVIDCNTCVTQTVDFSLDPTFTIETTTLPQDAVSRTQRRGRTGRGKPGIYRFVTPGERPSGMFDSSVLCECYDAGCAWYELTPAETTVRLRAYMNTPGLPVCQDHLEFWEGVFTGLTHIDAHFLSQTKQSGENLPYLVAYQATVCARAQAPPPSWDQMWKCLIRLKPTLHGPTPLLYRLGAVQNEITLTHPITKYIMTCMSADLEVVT
Albumin, sequence (P02769 whole entry): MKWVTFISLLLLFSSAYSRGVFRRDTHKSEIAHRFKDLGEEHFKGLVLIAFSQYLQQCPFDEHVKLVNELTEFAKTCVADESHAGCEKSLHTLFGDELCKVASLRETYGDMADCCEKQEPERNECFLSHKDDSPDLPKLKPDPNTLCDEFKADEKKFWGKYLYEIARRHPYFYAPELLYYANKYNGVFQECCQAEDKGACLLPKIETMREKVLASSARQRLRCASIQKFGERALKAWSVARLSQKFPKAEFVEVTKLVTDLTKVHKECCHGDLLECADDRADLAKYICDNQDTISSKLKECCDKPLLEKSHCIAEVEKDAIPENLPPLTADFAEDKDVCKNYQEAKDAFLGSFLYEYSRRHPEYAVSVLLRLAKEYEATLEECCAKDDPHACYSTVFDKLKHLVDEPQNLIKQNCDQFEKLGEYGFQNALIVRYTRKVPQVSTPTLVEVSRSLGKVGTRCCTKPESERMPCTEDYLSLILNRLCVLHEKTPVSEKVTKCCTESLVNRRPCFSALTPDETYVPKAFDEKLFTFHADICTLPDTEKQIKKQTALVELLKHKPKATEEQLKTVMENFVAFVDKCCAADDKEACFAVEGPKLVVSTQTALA
Caspase-7, sequence (P55210 24-198 limits assumed): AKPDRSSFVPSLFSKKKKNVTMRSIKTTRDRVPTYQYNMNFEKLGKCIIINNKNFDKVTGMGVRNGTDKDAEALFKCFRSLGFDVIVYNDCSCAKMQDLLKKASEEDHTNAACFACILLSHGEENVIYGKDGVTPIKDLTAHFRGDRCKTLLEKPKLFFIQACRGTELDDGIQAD
Caspase-7, sequence (P55210 207-303 limits assumed): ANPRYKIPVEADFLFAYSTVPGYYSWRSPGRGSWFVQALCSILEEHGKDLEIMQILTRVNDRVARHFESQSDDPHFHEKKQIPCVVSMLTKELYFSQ
Nonstructural protein 1, sequence (Q194T2 whole entry): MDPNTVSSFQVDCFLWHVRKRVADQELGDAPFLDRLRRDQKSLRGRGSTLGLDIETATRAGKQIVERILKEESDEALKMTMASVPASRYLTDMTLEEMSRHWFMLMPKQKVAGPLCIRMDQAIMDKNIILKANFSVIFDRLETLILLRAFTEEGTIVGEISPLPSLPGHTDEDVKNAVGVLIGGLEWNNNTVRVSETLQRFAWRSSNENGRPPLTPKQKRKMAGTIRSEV
NACHT, LRR and PYD domains-containing protein 1, sequence (Q9C000 1-1212 limits assumed): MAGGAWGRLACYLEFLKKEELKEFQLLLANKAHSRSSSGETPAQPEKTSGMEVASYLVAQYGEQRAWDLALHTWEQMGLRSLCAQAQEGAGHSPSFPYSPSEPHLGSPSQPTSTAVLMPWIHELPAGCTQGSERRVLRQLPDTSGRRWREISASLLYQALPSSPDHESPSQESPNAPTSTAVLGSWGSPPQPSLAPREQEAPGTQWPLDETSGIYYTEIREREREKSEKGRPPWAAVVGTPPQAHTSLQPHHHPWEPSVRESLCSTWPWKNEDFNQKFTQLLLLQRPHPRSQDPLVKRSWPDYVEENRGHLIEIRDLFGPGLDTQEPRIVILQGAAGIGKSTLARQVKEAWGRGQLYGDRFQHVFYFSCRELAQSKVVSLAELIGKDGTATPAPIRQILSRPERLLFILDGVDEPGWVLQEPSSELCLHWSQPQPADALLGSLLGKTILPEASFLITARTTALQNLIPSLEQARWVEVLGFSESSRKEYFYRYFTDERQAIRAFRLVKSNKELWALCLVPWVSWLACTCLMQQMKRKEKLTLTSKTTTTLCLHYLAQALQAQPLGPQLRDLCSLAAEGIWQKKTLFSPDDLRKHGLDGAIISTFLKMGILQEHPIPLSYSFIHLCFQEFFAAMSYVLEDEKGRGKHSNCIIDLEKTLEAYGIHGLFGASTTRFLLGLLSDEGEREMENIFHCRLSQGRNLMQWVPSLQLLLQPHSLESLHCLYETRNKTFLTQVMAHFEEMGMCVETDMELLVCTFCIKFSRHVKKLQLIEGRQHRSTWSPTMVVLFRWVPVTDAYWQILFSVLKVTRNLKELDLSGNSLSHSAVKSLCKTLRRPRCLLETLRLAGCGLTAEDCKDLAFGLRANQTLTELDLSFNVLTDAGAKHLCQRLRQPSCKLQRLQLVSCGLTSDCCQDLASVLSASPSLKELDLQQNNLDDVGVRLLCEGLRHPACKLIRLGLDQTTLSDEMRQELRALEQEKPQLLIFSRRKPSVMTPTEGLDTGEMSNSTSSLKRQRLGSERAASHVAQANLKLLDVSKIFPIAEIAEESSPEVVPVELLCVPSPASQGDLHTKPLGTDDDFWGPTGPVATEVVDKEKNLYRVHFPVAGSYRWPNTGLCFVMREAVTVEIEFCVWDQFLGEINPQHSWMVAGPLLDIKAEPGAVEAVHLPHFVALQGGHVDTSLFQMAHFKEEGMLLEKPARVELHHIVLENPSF
NACHT, LRR and PYD domains-containing protein 1, sequence (Q9C000 1213-1473 limits assumed): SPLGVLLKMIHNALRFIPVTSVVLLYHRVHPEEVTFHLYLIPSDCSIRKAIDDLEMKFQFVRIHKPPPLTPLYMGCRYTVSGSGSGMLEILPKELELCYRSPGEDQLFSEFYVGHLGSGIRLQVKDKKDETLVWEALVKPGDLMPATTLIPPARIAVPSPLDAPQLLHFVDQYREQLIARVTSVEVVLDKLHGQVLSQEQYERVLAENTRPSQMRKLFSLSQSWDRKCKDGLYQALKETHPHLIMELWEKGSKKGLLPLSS
Beta-galactosidase, sequence (Q8VNN2 whole entry): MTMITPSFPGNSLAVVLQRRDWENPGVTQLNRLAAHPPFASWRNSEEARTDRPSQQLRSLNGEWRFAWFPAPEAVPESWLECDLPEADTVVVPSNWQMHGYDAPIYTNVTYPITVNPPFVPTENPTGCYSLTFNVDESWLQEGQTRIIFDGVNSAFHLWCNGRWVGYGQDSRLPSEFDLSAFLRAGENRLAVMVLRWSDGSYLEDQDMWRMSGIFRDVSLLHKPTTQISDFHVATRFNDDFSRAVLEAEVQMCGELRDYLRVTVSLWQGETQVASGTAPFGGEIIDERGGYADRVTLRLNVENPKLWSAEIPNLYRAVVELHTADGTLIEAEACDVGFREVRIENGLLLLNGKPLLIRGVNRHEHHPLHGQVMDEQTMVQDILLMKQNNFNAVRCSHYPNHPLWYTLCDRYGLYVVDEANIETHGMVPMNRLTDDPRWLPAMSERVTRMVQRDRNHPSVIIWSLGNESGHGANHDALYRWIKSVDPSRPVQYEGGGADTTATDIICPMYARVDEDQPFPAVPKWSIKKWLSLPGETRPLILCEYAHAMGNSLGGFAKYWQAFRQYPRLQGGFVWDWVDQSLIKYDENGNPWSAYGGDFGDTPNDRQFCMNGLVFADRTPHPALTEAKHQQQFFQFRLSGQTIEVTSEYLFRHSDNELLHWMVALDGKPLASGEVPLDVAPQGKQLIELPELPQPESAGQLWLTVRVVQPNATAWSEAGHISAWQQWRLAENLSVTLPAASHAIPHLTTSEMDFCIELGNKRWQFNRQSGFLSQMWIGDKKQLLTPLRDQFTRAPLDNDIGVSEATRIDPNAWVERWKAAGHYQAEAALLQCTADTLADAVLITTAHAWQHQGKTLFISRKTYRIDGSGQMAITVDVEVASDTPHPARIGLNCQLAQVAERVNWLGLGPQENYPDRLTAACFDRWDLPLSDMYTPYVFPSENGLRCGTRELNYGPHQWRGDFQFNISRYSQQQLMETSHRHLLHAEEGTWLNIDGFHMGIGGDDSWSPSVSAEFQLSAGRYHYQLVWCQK
Delta-type opioid receptor, sequence (P41143 whole entry): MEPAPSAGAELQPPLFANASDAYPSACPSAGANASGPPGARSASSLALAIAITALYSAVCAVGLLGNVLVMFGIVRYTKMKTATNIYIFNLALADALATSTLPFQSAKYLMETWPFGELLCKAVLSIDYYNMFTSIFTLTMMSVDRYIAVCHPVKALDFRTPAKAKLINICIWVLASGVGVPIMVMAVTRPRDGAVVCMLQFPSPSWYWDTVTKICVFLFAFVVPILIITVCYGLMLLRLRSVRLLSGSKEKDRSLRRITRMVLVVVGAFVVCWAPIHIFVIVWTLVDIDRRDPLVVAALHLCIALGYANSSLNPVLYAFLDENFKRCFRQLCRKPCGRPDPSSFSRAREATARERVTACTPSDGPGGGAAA

In the case of `CN(Cc1ccccc1)C(=O)C1CCCN(Cc2ccc(C(F)(F)F)cc2)C1` (stereo unspecified), the AC50 [1] is reported as 61.6 µM (active).
With `Cc1ccc(-n2nnnc2C(Cl)c2nnnn2-c2ccc(C)cc2)cc1` the IC50 [2] was 11 µM (active), the EC50 [3] was > 60 µM (not active) and the AC50 [4] was 0.635 µM (active). For the same compound, the EC50 [5] was 3.31 µM (active), the EC50 [6] was > 160 µM (inactive) and the IC50 (Saccharomyces cerevisiae) was 6.59 µM (active). For the same compound, the EC50 [7] was 17.6 µM (active), the EC50 [8] was 17.5 µM (active) and the EC50 [9] was > 38 µM (not active).
In the case of `CCOC(=O)C1=C(Cc2ccc(OC)cc2)C(=O)c2ccccc2C1=O`, the IC50 (Beta-galactosidase) is reported as > 66.6 µM (inactive), the IC50 (Hexokinase HKDC1) is reported as 7.57 µM (active) and the IC50 (Nonstructural protein 1) is reported as 42.9 µM (active).
For `Cc1ccc(S(=O)(=O)N2CCc3cc(C(=O)NCCN(Cc4ccccc4)C(C)C)ccc3C2)cc1`, the IC50 [10] was 0.0467 µM (active), the IC50 [11] was > 32 µM (inactive) and the IC50 [12] was < 0.0031 µM (active). For the same compound, the IC50 [13] was 0.0675 µM (active) and the IC50 (Mu-type opioid receptor) was 15.1 µM (inactive).
In the case of `Oc1c(Br)cc(Br)cc1/C=N/NC(=S)N[C@H]1CC2C=CC1C2` (stereo partly specified), the IC50 (Albumin) is reported as > 94.1 µM (inactive), the AC50 (INS1) is reported as 2 µM (active) and the IC50 (NS3) is reported as 7.8 µM (active). For the same compound, the EC50 (Caspase-7) was > 85.3 µM (inactive), the EC50 [14] was 0.109 µM (active) and the EC50 (Caspase-3) was > 9.47 µM (active). The EC50 (Streptococcus) was 0.448 µM (active).
With `COC(=O)[C@@]12CCCCN1[C@H](c1ccc(-c3cccc(Cl)c3)c(OC)c1)[C@H]1C(=O)N(C)C(=O)[C@H]12` the EC50 [15] was 2.11 µM (active).
